According to US20250221988A1 (Cullgen (Shanghai), Inc., priority 2022, published 2025):
Like-named read-outs stand apart in the source and are kept apart here.

Key:
[1] = tested on: MV4;11 cells; assay: Cell viability assay (CellTiter-Glo) in MV4;11 cells; assay type: cell-based; details: MV4;11 cells, three days, read-out: MV4
In short: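 After three days' exposure to 3-fold serial compound dilutions (8 or 12 points), viability of cells seeded at 5000/well is read by CellTiter-Glo. Runs were done alone or combined with gilteritinib at 10 nM (MV4;11) or 20 nM (MOLM-13); IC50 from nonlinear regression.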

[2] = tested on: MOLM-13 cells; assay: Cell viability assay (CellTiter-Glo) in MOLM-13 cells; assay type: cell-based; details: MOLM-13 cells; for IC50: three days; for sensitization of AML cells to GSPT1 degraders by FLT3 inhibition: with or without 20 nM gilteritinib, 3 days
[3] = Homo sapiens, MV4-11, 72 h, compound alone, 11 IC50
[4] = Homo sapiens, 72 h, compound alone, read-out: MOLM-13 IC50
[5] = with gilteritinib, read-out: MOLM-13 IC50 (nM) + 10 nM Gil
[6] = with 10 nM gilteritinib, 11 IC50 (nM) + 10 nM Gil

| SMILES | IC50 [1, 3] | IC50 [2, 4] | IC50 [2, 5] | IC50 [1, 6] | sensitization of AML cells to GSPT1 degraders by FLT3 inhibition [2] |
| --- | --- | --- | --- | --- | --- |
| O=C1CCC(N2C(=O)c3ccc(NC[C@H]4C[C@H](n5nc(C6CC6)c6cc(N7CCNCC7)ccc65)C4)cc3C2=O)C(=O)N1 (stereo partly drawn) [GS-740, 5-(((Trans-3-(3-cyclopropyl-5-(piperazin-1-yl)-1H-indazol-1-yl)cyclobutyl)methyl)amino)-2-(2,6-dioxopiperidin-3-yl)isoindoline-1,3-dione] | > 1000 nM | > 1000 nM | 100 to 1000 nM | – | – |
| O=C1CCC(N2C(=O)c3ccc(NC[C@H]4C[C@H](n5nc(C6CC6)cc5Cc5ccccc5)C4)cc3C2=O)C(=O)N1 (stereo partly drawn) [GS-741, 5-((Trans-3-(5-benzyl-3-cyclopropyl-1H-pyrazol-1-yl)cyclobutyl)methylamino)-2-(2,6-dioxopiperidin-3-yl)isoindoline-1,3-dione] | 10 to 100 nM | 10 to 100 nM | 10 to 100 nM | < 10 nM | – |
| O=C1CCC(N2C(=O)c3ccc(NC[C@H]4C[C@H](n5nc(C6CC6)c6ccc(N7CCNCC7)cc65)C4)cc3C2=O)C(=O)N1 (stereo partly drawn) [GS-742, 5-(((Trans-3-(3-cyclopropyl-6-(piperazin-1-yl)-1H-indazol-1-yl)cyclobutyl)methyl)amino)-2-(2,6-dioxopiperidin-3-yl)isoindoline-1,3-dione] | > 1000 nM | > 1000 nM | 100 to 1000 nM | 100 to 1000 nM | – |
| CC(C)n1cc2c(-c3cn([C@H]4C[C@H](CNc5ccc6c(c5)C(=O)N(C5CCC(=O)NC5=O)C6=O)C4)nc3C3CC3)ncc(F)c2n1 (stereo partly drawn) [GS-743, 5-(((Trans-3-(3-cyclopropyl-4-(7-fluoro-2-isopropyl-2H-pyrazolo[4,3-c]pyridin-4-yl)-1H-pyrazol-1-yl)cyclobutyl)methyl)amino)-2-(2,6-dioxopiperidin-3-yl)isoindoline-1,3-dione] | < 10 nM | < 10 nM | < 10 nM | < 10 nM | – |
| O=C1CCC(N2C(=O)c3ccc(NC[C@H]4C[C@H](n5cc(-c6ncccc6C6CNC6)c(C6CC6)n5)C4)cc3C2=O)C(=O)N1 (stereo partly drawn) [GS-745, 5-(((Trans-3-(4-(3-(azetidin-3-yl)pyridin-2-yl)-3-cyclopropyl-1H-pyrazol-1-yl)cyclobutyl)methyl)amino)-2-(2,6-dioxopiperidin-3-yl)isoindoline-1,3-dione] | > 1000 nM | > 1000 nM | – | – | – |
| O=C1CCC(N2C(=O)c3ccc(NCC4CC(n5cc(-c6cnc7cc(C8CNC8)ccc7n6)c(C6CC6)n5)C4)cc3C2=O)C(=O)N1 (centres unmarked) [GS-746] | 100 to 1000 nM | > 1000 nM | 10 to 100 nM | 10 to 100 nM | – |
| Cc1nc(-c2cn([C@H]3C[C@H](CNc4ccc5c(c4)C(=O)N(C4CCC(=O)NC4=O)C5=O)C3)nc2C2CC2)cc2c1cnn2C (stereo partly drawn) [GS-747, 5-(((Trans-3-(3-cyclopropyl-4-(1,4-dimethyl-1H-pyrazolo[4,3-c]pyridin-6-yl)-1H-pyrazol-1-yl)cyclobutyl)methyl)amino)-2-(2,6-dioxopiperidin-3-yl)isoindoline-1,3-dione] | 10 to 100 nM | 10 to 100 nM | < 10 nM | < 10 nM | – |
| Cc1cccc(-c2cn(C3CC4(CC(CCNc5ccc6c(c5)C(=O)N(C5CCC(=O)NC5=O)C6=O)C4)C3)nc2C2CC2)n1 (centres unmarked) [GS-749, 5-((2-(6-(3-Cyclopropyl-4-(6-methylpyridin-2-yl)-1H-pyrazol-1-yl)spiro[3.3]heptan-2-yl)ethyl)amino)-2-(2,6-dioxopiperidin-3-yl)isoindoline-1,3-dione] | 10 to 100 nM | 10 to 100 nM | < 10 nM | < 10 nM | FLT3 inhibition sensitizes AML cells |
| O=C1CCC(N2C(=O)c3ccc(NC[C@H]4C[C@H](n5cc(-c6cc7nn(C8CC(O)C8)cc7cn6)c(C6CC6)n5)C4)cc3C2=O)C(=O)N1 (stereo partly drawn) [GS-750, 5-(((Trans-3-(3-cyclopropyl-4-(2-(3-hydroxycyclobutyl)-2H-pyrazolo[4,3-c]pyridin-6-yl)-1H-pyrazol-1-yl)cyclobutyl)methyl)amino)-2-(2,6-dioxopiperidin-3-yl)isoindoline-1,3-dione] | < 10 nM | < 10 nM | < 10 nM | < 10 nM | FLT3 inhibition sensitizes AML cells |
